Assay results reported in the NIST ThermoML archive (doi:10.1016/j.jct.2017.03.026).

Settings: 101.33 kPa, Crystal, Small (less than 1 g) adiabatic calorimetry

O.O.O.O.O.O=S(=O)([O-])[O-].[Cu+2] [copper(II) sulfate pentahydrate]
Settings | molar entropy [J/K/mol]
5 K | 1.205
10 K | 1.688
15 K | 2.669
20 K | 4.429
25 K | 6.984
30 K | 10.25
35 K | 14.13
40 K | 18.55
45 K | 23.35
50 K | 28.39
55 K | 33.74
60 K | 39.25
65 K | 44.9
70 K | 50.64
75 K | 56.43
80 K | 62.26
85 K | 68.09
90 K | 73.92
95 K | 79.73
100 K | 85.52
110 K | 97.04
120 K | 108.5
130 K | 119.8
140 K | 131
150 K | 142.1
160 K | 153.1
170 K | 164
180 K | 174.7
190 K | 185.4
200 K | 196
210 K | 206.5
220 K | 216.9
230 K | 227.2
240 K | 237.5
250 K | 247.6
260 K | 257.7
270 K | 267.6
273.15 K | 270.7
280 K | 277.5
290 K | 287.3
298.15 K | 295.2
300 K | 297
310 K | 306.6
320 K | 316.1
